Values joined by “and” are separate entries in the source; they are usually repeats but may differ in a detail not shown here. Identical values can stand only once. Like-named read-outs stand apart in the source and are kept apart here. Each block holds one molecule with its values, some of them ahead of it.
Key:
Assay type in all cases: biochemical
2E1 = 2E1 (Homo sapiens, UniProt P05181); details: 25 μM; 15 min pre-incubation at 37 °C in the presence of 1 mM NADPH; positive control
[1] = target: human cytochrome P450_2E1 (Homo sapiens, UniProt P05181); test: Inhibition of P450 2E1; details: for Ki: KI for inhibition of 2E1, competitive model, p-nitrophenol substrate; for fold difference in 2E1 KI, branched versus linear 10-carbon aldehyde: decanal vs citronellal, decenal vs citral
Chain of human cytochrome P450_2E1 (P05181 whole entry): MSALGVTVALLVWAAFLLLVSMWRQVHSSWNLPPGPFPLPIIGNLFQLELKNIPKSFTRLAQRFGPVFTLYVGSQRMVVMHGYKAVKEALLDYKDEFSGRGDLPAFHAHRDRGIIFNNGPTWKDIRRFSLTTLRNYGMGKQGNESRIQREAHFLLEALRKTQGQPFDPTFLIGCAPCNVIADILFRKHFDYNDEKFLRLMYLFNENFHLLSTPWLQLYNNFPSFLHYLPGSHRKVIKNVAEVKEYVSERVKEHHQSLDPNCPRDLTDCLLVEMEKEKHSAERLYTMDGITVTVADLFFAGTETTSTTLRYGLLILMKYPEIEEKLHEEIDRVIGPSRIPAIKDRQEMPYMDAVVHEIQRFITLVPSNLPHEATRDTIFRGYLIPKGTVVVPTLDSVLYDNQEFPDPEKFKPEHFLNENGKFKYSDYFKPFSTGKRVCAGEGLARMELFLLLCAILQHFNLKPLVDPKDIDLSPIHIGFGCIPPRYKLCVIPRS

[2] = target: expressed cytochrome P450_2E1 in supersomes (Homo sapiens, UniProt P05181); test: Aldehyde oxidation to carboxylic acid by expressed human P450 2E1 supersomes; details: for NADPH-dependent oxidation of aldehyde by expressed 2E1: 100-120 μM aldehyde, 1.0 mM NADPH, 45 min, 37 °C; for effect on the rate of acid formation from trans-2-octenal: 1.0 mM added, 2E1 supersomes
Chain of expressed cytochrome P450_2E1 in supersomes (P05181 whole entry): as above

[3] = target: T1, expressed 2A6 (supersomes) (Homo sapiens, UniProt P11509); test: Aldehyde oxidation to carboxylic acid by expressed human P450 2A6 supersomes; details: 100-120 μM aldehyde, 1.0 mM NADPH, 45 min, 37 °C
T1 sequence (P11509 1-494): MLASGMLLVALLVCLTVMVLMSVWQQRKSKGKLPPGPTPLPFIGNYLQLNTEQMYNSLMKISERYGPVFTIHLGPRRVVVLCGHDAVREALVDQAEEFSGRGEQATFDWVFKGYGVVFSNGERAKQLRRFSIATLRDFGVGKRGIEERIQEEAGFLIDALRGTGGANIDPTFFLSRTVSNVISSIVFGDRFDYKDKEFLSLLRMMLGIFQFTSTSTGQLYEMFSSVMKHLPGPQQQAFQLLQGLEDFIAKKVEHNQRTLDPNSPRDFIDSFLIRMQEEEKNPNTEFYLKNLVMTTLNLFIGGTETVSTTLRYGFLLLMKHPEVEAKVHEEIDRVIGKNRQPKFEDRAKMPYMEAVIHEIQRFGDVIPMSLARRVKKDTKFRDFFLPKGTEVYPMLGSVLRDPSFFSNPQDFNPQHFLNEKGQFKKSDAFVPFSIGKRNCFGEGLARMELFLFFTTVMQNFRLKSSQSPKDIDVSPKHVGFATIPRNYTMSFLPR

[4] = target: T2, human cytochrome P450_2A6 (Homo sapiens, UniProt P11509); test: Inhibition of P450 2A6
T2 sequence (P11509 1-494): T1 sequence (P11509 1-494)

[5] = KI for inhibition of 2A6, competitive model, coumarin substrate

Chain of 2E1 (P05181 whole entry): as the sequence (P05181 whole entry) above

SMILES: C=CCCCCCCCCC=O [11-undecylenic aldehyde]
- loss of the activity of 2E1 after pre-incubation (2E1): ~ 50%

SMILES: CCCCCCCCCC=O [Decyl Saturated, decanal]
- Ki [1]: 7 µM
- fold difference in 2E1 KI, branched versus linear 10-carbon aldehyde [1]: about 8 fold

SMILES: CCCCCCC/C=C/C=O [Decyl Unsaturated, trans-2-decenal]
- NADPH-dependent oxidation of aldehyde by expressed 2E1 [2]: effective in the oxidation
- NADPH-dependent oxidation of aldehyde by expressed 2A6 [3]: no acid products

SMILES: CCCCCCC=O [Heptyl Saturated, heptanal]
- Ki [4, 5]: 15.8 ± 1.1 µM

SMILES: CCCC/C=C/C=O [Heptyl Unsaturated, trans-2-heptenal]
- NADPH-dependent oxidation of aldehyde by expressed 2E1 [2]: effective in the oxidation
- NADPH-dependent oxidation of aldehyde by expressed 2A6 [3]: no acid products

SMILES: CCCCCC=O [Hexyl Saturated]
- Ki [4]: 57 ± 7 µM

SMILES: CCC/C=C/C=O [Hexyl Unsaturated]
- Ki [4]: 33 ± 3 µM

SMILES: CCCCCCCCC=O [Nonyl Saturated]
- Ki [4]: 55 ± 6 µM

SMILES: CCCCCC/C=C/C=O [Nonyl Unsaturated, trans-2-nonenal]
- NADPH-dependent oxidation of aldehyde by expressed 2E1 [2]: effective in the oxidation
- NADPH-dependent oxidation of aldehyde by expressed 2A6 [3]: no acid products

SMILES: CCCCCCCC=O [Octyl Saturated]
- Ki [4]: 25 ± 2 µM

SMILES: CCCCC/C=C/C=O [Octyl Unsaturated, trans-2-octenal]
- NADPH-dependent oxidation of aldehyde by expressed 2E1 [2]: effective in the oxidation
- NADPH-dependent oxidation of aldehyde by expressed 2A6 [3]: no acid products

SMILES: CCCCC=O [Pentyl Saturated]
- Ki [4]: 126 ± 16 µM

SMILES: CCCCCCCCCCCC(=O)O [lauric acid, reference compound]
- reduction of the activity of 2E1 ([1]; concentration of 50 μM): 50%

Second part, the molecule after the results:

- Ki [4]: 1270 ± 150 µM
SMILES: CCC=CC=O [Pentyl Unsaturated]

- Ki [4]: 103 ± 22 µM
SMILES: CCCCCCCC/C=C/C=O [Undecy Unsaturated]

- effect on the rate of acid formation from trans-2-octenal [2]: no effect
SMILES: O=C1O[C@H]([C@@H](O)CO)C(O)=C1O [ascorbate, reference compound]

- Ki [4, 5]: > 100 µM
- Ki [1]: 18.8 µM and 15.7 µM
- mode of inhibition of 2E1 ([1]; Michaelis-Menten model): reversible competitive inhibition
- fold difference in 2E1 KI, branched versus linear 10-carbon aldehyde [1]: 5 fold
SMILES: CC(C)=CCCC(C)=CC=O [citral, 3,7-dimethyl 2,6-octadienal]

- effect on the rate of acid formation from trans-2-octenal [2]: no effect
SMILES: N[C@@H](CCC(=O)N[C@@H](CS)C(=O)NCC(=O)O)C(=O)O [glutathione, reference compound]

Reference: publication PMC4252262 (Chemico-biological interactions, 2014)
